Experimental data: paper PMC8550792, “Evolution of kinase polypharmacology across HSP90 drug discovery” (Cell Chemical Biology, 2021)
Read-outs that look alike come from different tables or passages of the source.

Columns and labels:
Test in all cases: biochemical
Format in all cases: biochemical
382 unique human kinases [1] = molecular target: T1, 382 unique human kinases (Homo sapiens, UniProt P10721, K642E); settings: kinase c-Kit (K642E), compound 10 uM; for remaining activity at 10 µM: read-out: % Enzyme Activity (relative to DMSO controls)
T1 construct: purchased Reaction Biology (HotSpot contract assay)

382 unique human kinases [2] = molecular target: T2, 382 unique human kinases (Homo sapiens, UniProt P54646); settings: for remaining activity at 10 µM: read-out: % Enzyme Activity (relative to DMSO controls)
T2 construct: purchased Reaction Biology (HotSpot contract assay)

382 unique human kinases [3] = molecular target: T3, 382 unique human kinases (Homo sapiens, UniProt Q02156); settings: kinase PKCepsilon, compound 10 uM; for remaining activity at 10 µM: read-out: % Enzyme Activity (relative to DMSO controls)
T3 construct: purchased Reaction Biology (HotSpot contract assay)
T3 sequence (Q02156 1-737): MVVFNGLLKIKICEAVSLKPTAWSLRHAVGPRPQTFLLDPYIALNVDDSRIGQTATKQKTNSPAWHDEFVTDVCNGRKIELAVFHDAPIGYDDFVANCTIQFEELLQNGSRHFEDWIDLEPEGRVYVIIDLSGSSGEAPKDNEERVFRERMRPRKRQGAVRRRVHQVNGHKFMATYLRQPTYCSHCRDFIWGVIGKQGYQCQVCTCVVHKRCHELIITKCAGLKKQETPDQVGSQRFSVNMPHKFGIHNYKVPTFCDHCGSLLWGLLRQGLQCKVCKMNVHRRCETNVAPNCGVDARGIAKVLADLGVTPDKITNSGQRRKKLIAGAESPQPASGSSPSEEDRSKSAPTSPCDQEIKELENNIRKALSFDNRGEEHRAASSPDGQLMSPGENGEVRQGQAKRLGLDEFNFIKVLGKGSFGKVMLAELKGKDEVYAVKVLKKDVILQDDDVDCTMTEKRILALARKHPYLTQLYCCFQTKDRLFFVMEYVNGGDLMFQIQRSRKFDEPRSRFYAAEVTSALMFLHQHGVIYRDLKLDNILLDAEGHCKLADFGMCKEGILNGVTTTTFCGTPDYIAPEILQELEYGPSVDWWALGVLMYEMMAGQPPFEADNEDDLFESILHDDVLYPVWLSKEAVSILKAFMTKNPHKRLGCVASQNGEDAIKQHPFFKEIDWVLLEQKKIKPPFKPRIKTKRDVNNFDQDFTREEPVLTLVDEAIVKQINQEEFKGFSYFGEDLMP

382 unique human kinases [4] = molecular target: T4, 382 unique human kinases (Homo sapiens, UniProt Q02763, R849W); settings: kinase TIE2 (R849W), compound 10 uM; for remaining activity at 10 µM: read-out: % Enzyme Activity (relative to DMSO controls)
T4 construct: purchased Reaction Biology (HotSpot contract assay)

382 unique human kinases [5] = molecular target: T5, 382 unique human kinases (Homo sapiens, UniProt Q04771, R206H); settings: ALK2 (R206H), compound at 10 uM, duplicate values; for remaining activity at 10 µM: read-out: % Enzyme Activity (relative to DMSO controls)
T5 construct: purchased Reaction Biology (HotSpot contract assay)
T5 sequence (Q04771 21-509 R206H): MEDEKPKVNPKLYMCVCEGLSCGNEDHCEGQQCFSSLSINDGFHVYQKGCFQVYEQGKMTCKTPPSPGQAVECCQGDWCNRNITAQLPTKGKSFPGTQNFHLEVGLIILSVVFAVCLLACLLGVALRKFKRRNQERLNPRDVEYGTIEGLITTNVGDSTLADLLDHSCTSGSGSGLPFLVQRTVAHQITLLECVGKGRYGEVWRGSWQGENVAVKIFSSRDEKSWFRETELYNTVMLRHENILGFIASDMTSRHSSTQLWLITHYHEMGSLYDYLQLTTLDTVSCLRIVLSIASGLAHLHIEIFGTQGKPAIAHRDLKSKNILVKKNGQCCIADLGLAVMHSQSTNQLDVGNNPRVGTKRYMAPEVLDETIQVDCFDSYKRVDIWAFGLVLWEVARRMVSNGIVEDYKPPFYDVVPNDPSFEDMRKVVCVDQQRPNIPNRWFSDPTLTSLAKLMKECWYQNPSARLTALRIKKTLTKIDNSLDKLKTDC

382 unique human kinases [6] = molecular target: T6, 382 unique human kinases (Homo sapiens, UniProt Q9UHD2); settings: kinase TBK1, compound 10 uM; for remaining activity at 10 µM: read-out: % Enzyme Activity (relative to DMSO controls)
T6 construct: purchased Reaction Biology (HotSpot contract assay)
T6 sequence (Q9UHD2 1-729): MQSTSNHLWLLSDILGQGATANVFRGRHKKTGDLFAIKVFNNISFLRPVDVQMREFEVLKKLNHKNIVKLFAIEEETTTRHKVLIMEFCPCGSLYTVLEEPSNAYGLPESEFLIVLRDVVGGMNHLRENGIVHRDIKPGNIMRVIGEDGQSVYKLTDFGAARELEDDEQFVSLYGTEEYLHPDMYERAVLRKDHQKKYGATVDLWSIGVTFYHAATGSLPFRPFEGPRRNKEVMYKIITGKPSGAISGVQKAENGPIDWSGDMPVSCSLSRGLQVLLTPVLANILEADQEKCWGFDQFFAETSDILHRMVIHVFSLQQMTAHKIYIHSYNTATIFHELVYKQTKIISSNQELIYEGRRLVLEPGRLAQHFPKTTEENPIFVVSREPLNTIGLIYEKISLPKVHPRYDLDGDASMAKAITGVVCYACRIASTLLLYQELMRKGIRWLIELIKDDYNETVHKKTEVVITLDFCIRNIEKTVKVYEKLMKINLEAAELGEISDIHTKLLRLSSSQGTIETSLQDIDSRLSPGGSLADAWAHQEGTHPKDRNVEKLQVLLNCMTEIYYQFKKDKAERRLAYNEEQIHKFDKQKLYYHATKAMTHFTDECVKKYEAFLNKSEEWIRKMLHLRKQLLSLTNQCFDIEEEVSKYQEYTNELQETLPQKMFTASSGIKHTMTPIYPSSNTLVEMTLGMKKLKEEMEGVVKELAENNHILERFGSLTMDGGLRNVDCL

382 unique human kinases [7] = molecular target: T7, 382 unique human kinases (Homo sapiens, UniProt Q9UKE5); settings: TNIK, 10 uM; for remaining activity at 10 µM: read-out: % Enzyme Activity (relative to DMSO controls)
T7 construct: purchased Reaction Biology (HotSpot contract assay)

382 unique human kinases [8] = molecular target: T8, 382 unique human kinases (Homo sapiens, UniProt P07949, V778I); settings: RET (V778I), [ATP] 10 µM, compound 10 uM; for remaining activity at 10 µM: read-out: % Enzyme Activity (relative to DMSO controls)
T8 construct: purchased Reaction Biology (HotSpot contract assay)

382 unique human kinases [9] = molecular target: T9, 382 unique human kinases (Homo sapiens, UniProt P10721, V559D/V654A); settings: c-Kit (V559D/V654A), 10 uM; for remaining activity at 10 µM: read-out: % Enzyme Activity (relative to DMSO controls)
T9 construct: purchased Reaction Biology (HotSpot contract assay)

382 unique human kinases [10] = molecular target: T10, 382 unique human kinases (Homo sapiens, UniProt P12931); settings: c-Src, [ATP] 15 µM
T10 construct: purchased Reaction Biology (HotSpot contract assay)

382 unique human kinases [11] = molecular target: T11, 382 unique human kinases (Homo sapiens, UniProt Q16654); settings: PDK4/PDKH4, [ATP] 30 µM
T11 construct: purchased Reaction Biology (HotSpot contract assay)

[12] = kinase AMPK(A2/B1/G1), compound 10 uM
[13] = kinase AMPK(A2/B2/G1), compound 10 uM
[14] = kinase AMPK(A2/B2/G2), compound 10 uM
[15] = compound 1 uM, read-out: % Enzyme Activity (relative to DMSO controls)
[16] = compound 10 uM, read-out: % Enzyme Activity (relative to DMSO controls)

T9 sequence (P10721 26-976 V559D/V654A): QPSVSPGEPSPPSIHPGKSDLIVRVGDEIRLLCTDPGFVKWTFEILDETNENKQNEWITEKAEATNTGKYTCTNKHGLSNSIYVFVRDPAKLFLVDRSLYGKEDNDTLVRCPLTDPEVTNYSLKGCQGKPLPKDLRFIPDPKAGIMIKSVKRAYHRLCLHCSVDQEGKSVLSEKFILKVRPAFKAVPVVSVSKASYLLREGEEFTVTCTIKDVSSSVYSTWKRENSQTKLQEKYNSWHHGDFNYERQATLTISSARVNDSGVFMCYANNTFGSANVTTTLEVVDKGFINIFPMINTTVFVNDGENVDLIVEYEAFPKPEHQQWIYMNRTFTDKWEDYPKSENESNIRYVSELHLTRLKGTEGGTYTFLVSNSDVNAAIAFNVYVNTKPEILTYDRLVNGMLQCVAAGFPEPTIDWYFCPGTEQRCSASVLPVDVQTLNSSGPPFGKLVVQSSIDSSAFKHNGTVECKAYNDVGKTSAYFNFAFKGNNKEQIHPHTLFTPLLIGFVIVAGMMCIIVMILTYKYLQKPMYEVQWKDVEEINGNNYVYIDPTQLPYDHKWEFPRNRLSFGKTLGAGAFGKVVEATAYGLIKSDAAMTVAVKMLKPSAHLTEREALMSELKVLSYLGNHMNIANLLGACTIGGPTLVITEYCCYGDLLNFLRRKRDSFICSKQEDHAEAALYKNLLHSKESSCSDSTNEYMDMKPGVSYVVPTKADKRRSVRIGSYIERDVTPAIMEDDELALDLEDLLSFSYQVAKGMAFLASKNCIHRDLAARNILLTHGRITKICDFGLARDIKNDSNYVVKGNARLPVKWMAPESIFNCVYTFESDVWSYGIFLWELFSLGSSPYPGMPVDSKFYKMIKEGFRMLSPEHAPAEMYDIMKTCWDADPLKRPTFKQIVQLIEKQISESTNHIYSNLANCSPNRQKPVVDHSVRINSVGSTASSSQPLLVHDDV
T2 sequence (P54646 whole entry): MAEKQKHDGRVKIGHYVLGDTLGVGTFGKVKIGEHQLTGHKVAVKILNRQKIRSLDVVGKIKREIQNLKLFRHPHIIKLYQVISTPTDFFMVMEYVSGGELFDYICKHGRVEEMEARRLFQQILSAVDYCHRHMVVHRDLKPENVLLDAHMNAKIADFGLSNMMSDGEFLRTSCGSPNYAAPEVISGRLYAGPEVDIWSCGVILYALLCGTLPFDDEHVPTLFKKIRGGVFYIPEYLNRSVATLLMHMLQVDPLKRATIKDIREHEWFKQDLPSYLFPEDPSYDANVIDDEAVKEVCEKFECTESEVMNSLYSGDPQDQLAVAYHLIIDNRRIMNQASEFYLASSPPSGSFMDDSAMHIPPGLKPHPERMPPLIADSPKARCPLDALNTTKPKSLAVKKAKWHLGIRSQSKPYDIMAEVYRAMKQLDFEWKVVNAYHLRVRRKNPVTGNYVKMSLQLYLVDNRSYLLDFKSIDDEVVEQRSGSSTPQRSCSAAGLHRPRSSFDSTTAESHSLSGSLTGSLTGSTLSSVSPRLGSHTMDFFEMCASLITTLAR
T10 sequence (P12931 whole entry): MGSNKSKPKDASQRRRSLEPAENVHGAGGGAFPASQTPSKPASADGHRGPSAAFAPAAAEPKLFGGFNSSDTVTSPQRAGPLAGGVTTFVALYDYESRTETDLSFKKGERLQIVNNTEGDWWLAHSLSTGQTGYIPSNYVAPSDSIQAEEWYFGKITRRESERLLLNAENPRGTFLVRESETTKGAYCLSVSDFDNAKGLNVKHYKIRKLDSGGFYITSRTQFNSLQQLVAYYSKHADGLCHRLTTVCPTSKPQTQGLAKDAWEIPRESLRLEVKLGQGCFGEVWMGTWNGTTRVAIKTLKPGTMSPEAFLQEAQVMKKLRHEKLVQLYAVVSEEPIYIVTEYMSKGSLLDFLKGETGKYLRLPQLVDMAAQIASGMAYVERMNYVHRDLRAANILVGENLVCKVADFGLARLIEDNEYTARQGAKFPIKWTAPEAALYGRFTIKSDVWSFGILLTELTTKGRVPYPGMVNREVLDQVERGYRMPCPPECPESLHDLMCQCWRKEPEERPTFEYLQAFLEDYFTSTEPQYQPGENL
T8 sequence (P07949 29-1114 V778I): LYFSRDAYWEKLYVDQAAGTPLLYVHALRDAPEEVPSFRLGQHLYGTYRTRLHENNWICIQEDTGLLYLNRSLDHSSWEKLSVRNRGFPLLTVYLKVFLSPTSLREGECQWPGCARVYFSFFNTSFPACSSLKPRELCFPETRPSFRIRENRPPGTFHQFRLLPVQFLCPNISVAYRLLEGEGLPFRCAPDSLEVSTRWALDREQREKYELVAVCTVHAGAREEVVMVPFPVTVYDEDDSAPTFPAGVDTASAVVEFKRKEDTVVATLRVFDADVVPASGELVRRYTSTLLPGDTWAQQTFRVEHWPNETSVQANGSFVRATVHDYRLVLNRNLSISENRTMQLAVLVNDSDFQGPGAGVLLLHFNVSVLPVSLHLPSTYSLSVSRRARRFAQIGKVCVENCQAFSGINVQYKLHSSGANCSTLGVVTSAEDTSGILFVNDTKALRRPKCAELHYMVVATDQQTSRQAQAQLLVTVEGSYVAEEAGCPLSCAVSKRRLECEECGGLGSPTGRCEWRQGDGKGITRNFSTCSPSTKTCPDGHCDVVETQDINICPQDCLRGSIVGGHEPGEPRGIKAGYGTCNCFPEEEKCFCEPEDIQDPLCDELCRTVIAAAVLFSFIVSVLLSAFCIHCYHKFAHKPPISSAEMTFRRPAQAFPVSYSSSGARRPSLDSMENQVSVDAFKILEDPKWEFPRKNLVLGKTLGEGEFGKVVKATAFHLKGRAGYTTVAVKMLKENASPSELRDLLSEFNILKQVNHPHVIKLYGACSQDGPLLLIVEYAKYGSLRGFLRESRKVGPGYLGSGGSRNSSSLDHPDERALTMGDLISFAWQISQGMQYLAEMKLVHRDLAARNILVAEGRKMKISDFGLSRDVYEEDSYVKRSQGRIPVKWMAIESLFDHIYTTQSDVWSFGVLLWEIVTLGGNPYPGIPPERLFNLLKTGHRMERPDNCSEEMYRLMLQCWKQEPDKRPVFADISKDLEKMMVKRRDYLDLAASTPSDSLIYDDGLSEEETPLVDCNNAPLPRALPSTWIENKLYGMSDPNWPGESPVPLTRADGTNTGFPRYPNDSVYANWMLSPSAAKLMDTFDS
T4 sequence (Q02763 23-1124 R849W): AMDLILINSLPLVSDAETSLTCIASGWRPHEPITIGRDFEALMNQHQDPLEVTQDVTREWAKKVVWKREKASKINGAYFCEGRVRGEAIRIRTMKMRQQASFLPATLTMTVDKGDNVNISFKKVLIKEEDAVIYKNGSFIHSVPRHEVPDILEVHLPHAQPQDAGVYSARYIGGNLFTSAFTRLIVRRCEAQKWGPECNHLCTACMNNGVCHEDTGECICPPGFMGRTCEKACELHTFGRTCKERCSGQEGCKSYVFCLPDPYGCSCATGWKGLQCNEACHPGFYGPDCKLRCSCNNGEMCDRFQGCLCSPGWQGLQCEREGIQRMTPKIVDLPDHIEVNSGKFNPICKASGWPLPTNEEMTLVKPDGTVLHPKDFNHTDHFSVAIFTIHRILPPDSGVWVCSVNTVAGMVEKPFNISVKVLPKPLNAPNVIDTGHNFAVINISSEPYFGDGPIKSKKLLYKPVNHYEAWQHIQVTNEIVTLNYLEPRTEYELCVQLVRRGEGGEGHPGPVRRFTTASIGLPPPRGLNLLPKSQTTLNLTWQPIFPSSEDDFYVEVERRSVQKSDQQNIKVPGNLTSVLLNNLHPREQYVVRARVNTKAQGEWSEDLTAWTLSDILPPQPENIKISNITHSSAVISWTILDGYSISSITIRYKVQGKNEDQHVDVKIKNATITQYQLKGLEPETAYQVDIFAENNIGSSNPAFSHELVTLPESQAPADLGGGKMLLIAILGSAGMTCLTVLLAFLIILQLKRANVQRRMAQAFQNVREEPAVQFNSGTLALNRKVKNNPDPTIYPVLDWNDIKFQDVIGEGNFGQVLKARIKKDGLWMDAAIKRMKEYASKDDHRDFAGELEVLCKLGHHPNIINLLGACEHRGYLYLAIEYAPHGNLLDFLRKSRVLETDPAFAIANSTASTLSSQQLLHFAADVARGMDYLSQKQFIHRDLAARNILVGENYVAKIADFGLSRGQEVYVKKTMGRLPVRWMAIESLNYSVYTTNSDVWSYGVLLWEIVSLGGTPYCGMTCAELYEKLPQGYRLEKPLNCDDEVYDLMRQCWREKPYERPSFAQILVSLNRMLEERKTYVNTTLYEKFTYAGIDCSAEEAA
T1 sequence (P10721 26-976 K642E): as the sequence (P10721 26-976 V559D/V654A) above, with D534V, K617E, A629V counted along it
T11 sequence (Q16654 whole entry): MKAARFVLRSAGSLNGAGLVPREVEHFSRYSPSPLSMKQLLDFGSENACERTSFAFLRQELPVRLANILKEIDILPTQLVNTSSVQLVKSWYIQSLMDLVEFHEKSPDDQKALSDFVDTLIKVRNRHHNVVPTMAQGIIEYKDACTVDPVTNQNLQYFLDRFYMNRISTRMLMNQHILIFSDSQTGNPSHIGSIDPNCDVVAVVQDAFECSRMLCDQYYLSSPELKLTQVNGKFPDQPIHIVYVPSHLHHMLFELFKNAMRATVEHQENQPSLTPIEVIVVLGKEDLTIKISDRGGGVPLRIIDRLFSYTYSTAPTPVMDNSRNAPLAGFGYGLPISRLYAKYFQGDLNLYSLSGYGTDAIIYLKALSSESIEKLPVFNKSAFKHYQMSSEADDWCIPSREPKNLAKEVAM

| Structure (SMILES) | remaining activity at 10 µM (382 unique human kinases [1]) | remaining activity at 10 µM (382 unique human kinases [2]; AMPK(A2/B2/G3), 10 uM) | remaining activity at 10 µM (382 unique human kinases [2]; [12]) | remaining activity at 10 µM (382 unique human kinases [2]; [13]) | remaining activity at 10 µM (382 unique human kinases [2]; [14]) | remaining activity at 10 µM (382 unique human kinases [3]) | remaining activity at 10 µM (382 unique human kinases [4]) | remaining activity at 10 µM (382 unique human kinases [5]) | remaining activity at 10 µM (382 unique human kinases [6]) | remaining activity at 10 µM (382 unique human kinases [7]) | remaining activity at 10 µM (382 unique human kinases [8]) | remaining activity at 10 µM (382 unique human kinases [9]) | remaining activity at 10 µM (382 unique human kinases [10]; [16]) | remaining activity at 10 µM (382 unique human kinases [11]; [16]) | also measured |
| --- | --- | --- | --- | --- | --- | --- | --- | --- | --- | --- | --- | --- | --- | --- | --- |
| CC(C)c1cc(-c2n[nH]c(=O)n2-c2ccc3c(ccn3C)c2)c(O)cc1O [Ganetespib (STA9090)] | 85.5% | 65.8% | 80.4% | 82.1% | 84.6% | 87% | 83.1% | 142% | 89.4% | 62.6% |  |  |  |  |  |
| CC(C)c1cc(-c2n[nH]c(=O)n2-c2ccc3c(ccn3C)c2)c(O)cc1O [Ganetespib] |  |  |  |  |  |  |  |  |  |  | 56.4% | 91.1% | 9.14% | 6.83% | remaining activity at 1 µM (382 unique human kinases [10]; [15]): 38.8%; remaining activity at 1 µM (382 unique human kinases [11]; [15]): 26.8% |
| CCNC(=O)c1noc(-c2cc(C(C)C)c(O)cc2O)c1-c1ccc(CN2CCOCC2)cc1 [Luminespib (AUY-922)] | 82.3% | 104% | 103% | 94.2% | 97.4% | 107% | 90.9% | 114% | 107% | 96.6% |  |  |  |  | % Enzyme Activity (relative to DMSO controls) (382 unique human kinases [1]): 81.47%; % Enzyme Activity (relative to DMSO controls) (382 unique human kinases [2]; AMPK(A2/B2/G3), 10 uM): 103.09%; % Enzyme Activity (relative to DMSO controls) (382 unique human kinases [2]; [12]): 102.86%; % Enzyme Activity (relative to DMSO controls) (382 unique human kinases [2]; [13]): 94.15%; % Enzyme Activity (relative to DMSO controls) (382 unique human kinases [2]; [14]): 96.15%; % Enzyme Activity (relative to DMSO controls) (382 unique human kinases [3]): 103.78%; % Enzyme Activity (relative to DMSO controls) (382 unique human kinases [4]): 89.68%; % Enzyme Activity (relative to DMSO controls) (382 unique human kinases [5]): 113.96%; % Enzyme Activity (relative to DMSO controls) (382 unique human kinases [6]): 105.06%; % Enzyme Activity (relative to DMSO controls) (382 unique human kinases [7]): 95.71% |
| CCNC(=O)c1noc(-c2cc(C(C)C)c(O)cc2O)c1-c1ccc(CN2CCOCC2)cc1 [Luminespib] |  |  |  |  |  |  |  |  |  |  | 111% | 103% | 36.4% | 29.9% | % Enzyme Activity (relative to DMSO controls) (382 unique human kinases [8]): 105.36%; % Enzyme Activity (relative to DMSO controls) (382 unique human kinases [9]): 102.17%; % Enzyme Activity (relative to DMSO controls) (382 unique human kinases [10]; compound 10 uM): 33.43%; % Enzyme Activity (relative to DMSO controls) (382 unique human kinases [11]; compound 10 uM): 27.75% |
